Experimental data reported in patent US20230201153A1, “COMPOSITIONS AND METHODS FOR TREATMENT OF OBESITY” (EPITRACKER, INC., priority 2020, published 2023).
“Also recorded” adds a separate entry of the source.

Legend:
[1] = target: T1, cannabinoid receptor 1 (CB1) (Homo sapiens, UniProt P21554); experiment: SAFETYscan E/IC50 ELECT functional assay, CB1 agonist activity; assay type: cell-based; conditions: at 20 μM; relative to positive control CP 55940 assigned 100%
T1 construct: purchased DiscoverX/Eurofins, Fremont, Calif
T1 sequence (P21554 whole entry): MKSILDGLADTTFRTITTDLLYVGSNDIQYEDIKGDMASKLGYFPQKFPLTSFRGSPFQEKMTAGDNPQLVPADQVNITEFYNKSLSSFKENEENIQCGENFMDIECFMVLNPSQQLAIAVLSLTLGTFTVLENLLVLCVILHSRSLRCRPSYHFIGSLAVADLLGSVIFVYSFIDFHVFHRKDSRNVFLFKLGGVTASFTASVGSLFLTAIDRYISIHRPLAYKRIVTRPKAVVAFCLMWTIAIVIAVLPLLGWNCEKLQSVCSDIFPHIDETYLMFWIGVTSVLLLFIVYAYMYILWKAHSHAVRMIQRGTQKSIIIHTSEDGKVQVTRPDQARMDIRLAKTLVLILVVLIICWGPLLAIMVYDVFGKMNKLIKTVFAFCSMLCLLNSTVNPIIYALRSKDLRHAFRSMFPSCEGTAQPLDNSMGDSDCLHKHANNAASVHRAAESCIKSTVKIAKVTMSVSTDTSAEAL
Excerpt: (§1) In order to evaluate potential pharmacologic targets of pentadecanoic acid, this study examined agonist and antagonist activities of synthetic pentadecanoic acid (Sigma-Aldrich Product W433400) across 78 assays using SAFETYscan E/IC50 ELECT (DiscoverX/Eurofins, Fremont, Calif.). Briefly, a variety of standardized and optimized functional assays were used, including G protein coupled receptors (ADORA2A, ADRA1A, ADRA2A, ADRB1, ADRB2, CB1, CB2, CCK1, D1, D2S, ETA, H1, H2, M1 M2, M3, OPRD1, OPRK1, OPRM1, 5HTR1A, 5HTR1B, 5HTR2A, 5HTR2B, AVPR1A), kinases (LCK, INSR, VEGFR2, ROCK1), transporters (DAT, NET, SERT), ion channels (GABAA, 5-HT3, CA1.2, HERG, KVLQT1/MINK, NA1.5, NMDAR1/2B, NACHR), nuclear receptors (AR, GR), and non-kinase enzymes (COX1, COX2, ACHE, MAOA, PDE3A, PDE4D2). Ten-point concentration curves for both agonist (EC50) and antagonist (IC50) activity were established for each target. Maximum activity (%) was also determined based on comparisons with internal positive controls, which were assigned 100% activity.

[2] = Voluntary customer surveys after daily oral C15:0 supplement (fatty15); assay type: in vivo, human
Experimental: An odd-chain saturated fatty acid dietary supplement, containing an encapsulated pure (>98%) free fatty acid C15:0 powder and called fatty15™, was launched as a consumer health product. Recommended dosing was a single, […] capsule taken orally once a day. Based on our studies with obese mice, we hypothesized that daily oral C15:0 supplementation would decrease snacking and/or improve body weight among customers.
6-Week Survey. Six weeks following receipt of the C15:0 supplement, customers were provided a voluntary electronic questionnaire to evaluate potential near-term benefits, including the question, ‘Overall how much would you agree with the following statement: Since starting fatty15, I feel less hungry between meals, snack less, and/or eat less during meals.’ Survey responders were asked to select a number between 1 and 10, in which 1=Strongly disagree and 10=Strongly agree. A response of 7 or greater was considered an agreement with the statement. Survey responders were also asked if fatty15™ had become a part of their daily health routine.
4-Month Survey. Approximately 4 months following receipt of the C15:0 supplement, customers were provided a second voluntary electronic questionnaire to evaluate potential longer-tem benefits, including the question, ‘Which of the following (if any) have you experienced since starting fatty15, even if this experience has been subtle?’ Two of the possible responses were ‘Healthier eating, including less snacking’ and ‘Healthier body weight’.

[3] = target: T2, cannabinoid receptor 2 (CB2) (Homo sapiens, UniProt P34972); experiment: SAFETYscan E/IC50 ELECT functional assay, CB2 agonist activity; assay type: cell-based; conditions: at 20 μM; relative to positive control CP 55940 assigned 100%
T2 construct: purchased DiscoverX/Eurofins, Fremont, Calif
T2 sequence (P34972 whole entry): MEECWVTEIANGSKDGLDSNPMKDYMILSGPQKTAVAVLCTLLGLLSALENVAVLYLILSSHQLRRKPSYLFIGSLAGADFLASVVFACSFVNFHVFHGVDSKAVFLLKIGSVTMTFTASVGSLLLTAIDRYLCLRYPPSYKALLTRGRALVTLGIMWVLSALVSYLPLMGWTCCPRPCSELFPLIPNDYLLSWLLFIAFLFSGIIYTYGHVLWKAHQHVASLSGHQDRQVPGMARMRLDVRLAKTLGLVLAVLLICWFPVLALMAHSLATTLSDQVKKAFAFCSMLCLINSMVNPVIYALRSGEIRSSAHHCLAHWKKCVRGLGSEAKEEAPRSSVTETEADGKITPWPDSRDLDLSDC
Excerpt: as §1

PPARγ = target: T3, PPARγ (Homo sapiens, UniProt P37231); experiment: PathHunter NHRscan CHO cell-based functional protein interaction assay, PPARγ agonist; conditions: CHO cells, 10 concentrations up to 100 μM; positive control troglitazone; read-out: concentration with PPARγ agonist activity
T3 construct: host or cells: Chinese hamster ovary (CHO)
T3 sequence (P37231 1-505): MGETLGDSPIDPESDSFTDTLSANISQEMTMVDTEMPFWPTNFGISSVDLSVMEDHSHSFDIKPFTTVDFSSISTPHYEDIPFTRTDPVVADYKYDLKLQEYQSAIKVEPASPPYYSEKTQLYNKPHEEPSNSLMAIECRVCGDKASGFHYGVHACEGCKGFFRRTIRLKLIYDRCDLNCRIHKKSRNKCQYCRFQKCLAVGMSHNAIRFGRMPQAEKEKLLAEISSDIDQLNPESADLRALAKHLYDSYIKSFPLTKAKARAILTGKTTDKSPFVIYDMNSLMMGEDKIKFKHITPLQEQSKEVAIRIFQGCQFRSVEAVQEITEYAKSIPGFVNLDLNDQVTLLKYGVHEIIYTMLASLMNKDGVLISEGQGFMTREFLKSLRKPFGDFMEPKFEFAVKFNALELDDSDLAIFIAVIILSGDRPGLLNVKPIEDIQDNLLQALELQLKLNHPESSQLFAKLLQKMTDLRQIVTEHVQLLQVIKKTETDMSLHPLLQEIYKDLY
Experimental: (§2) Chinese hamster ovary (CHO, cell line 93-0457C2) cell-based functional protein interaction assays for PPARα, δ, and γ that are part of the Eurofins/DiscoverX PathHunter NHRscan panel (Fremont, Calif.) were used to evaluate C15:0 and C17:0 PPARα, δ and γ agonist activities at 10 concentrations (up to 100 μM). Effective concentrations (EC:50) and maximum activities were determined in relation to positive controls (GW7647 for PPARα, L-165.041 for PPARδ, and troglitazone for PPARγ). Detailed methods used for these assays and assay readouts are available from Eurofins/DiscoverX.

PPARα = target: T4, PPARα (Homo sapiens, UniProt Q07869); experiment: PathHunter NHRscan CHO cell-based functional protein interaction assay, PPARα agonist; conditions: CHO cells, 10 concentrations up to 100 μM; for EC50: read-out: effective concentration needed to reach half-maximum PPARα activity
T4 construct: host or cells: Chinese hamster ovary (CHO)
T4 sequence (Q07869 1-468): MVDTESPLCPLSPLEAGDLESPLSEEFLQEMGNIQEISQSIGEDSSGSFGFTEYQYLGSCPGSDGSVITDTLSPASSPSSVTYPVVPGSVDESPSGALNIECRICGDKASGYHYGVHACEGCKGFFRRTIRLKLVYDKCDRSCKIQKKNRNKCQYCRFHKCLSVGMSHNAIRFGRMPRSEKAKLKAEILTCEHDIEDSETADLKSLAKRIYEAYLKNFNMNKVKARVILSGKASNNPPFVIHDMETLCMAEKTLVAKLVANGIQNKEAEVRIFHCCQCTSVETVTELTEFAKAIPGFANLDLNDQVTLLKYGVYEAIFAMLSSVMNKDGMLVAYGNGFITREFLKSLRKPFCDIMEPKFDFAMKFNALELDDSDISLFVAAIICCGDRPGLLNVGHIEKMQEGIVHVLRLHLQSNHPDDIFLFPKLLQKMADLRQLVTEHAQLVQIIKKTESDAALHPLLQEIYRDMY
Experimental: as §2

PPARδ = target: T5, PPARδ (Homo sapiens, UniProt Q03181); experiment: PathHunter NHRscan CHO cell-based functional protein interaction assay, PPARδ agonist; conditions: CHO cells, 10 concentrations up to 100 μM; for EC50: read-out: effective concentration needed to reach half-maximum PPARδ activity
T5 construct: host or cells: Chinese hamster ovary (CHO)
T5 sequence (Q03181 1-441): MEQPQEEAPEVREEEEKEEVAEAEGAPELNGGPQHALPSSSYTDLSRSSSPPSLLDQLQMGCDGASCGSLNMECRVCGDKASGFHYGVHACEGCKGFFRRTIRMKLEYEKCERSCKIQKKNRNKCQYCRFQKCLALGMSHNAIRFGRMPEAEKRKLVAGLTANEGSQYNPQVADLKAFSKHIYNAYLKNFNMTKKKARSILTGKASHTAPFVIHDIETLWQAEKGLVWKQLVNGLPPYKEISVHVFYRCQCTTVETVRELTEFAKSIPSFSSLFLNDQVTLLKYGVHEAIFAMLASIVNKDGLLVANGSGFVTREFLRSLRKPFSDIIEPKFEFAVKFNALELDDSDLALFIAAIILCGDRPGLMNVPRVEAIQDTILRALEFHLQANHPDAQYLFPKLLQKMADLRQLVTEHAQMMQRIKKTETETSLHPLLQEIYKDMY
Experimental: as §2

[4] = Body weight of mice fed a high-fat diet with daily oral supplementation; assay type: in vivo, male C57BL/6J mice; conditions: for Body weight / Body weight change (%): high fat diet, n = 10; for percent body weight gain / weight-lowering effect compared to non-supplemented controls: high fat diet mice, C15:0 5 mg/kg, C17:0 5 and 35 mg/kg daily oral
Excerpt: This study assessed the effects of daily oral C15:0 and C17:0 supplementation on the body weight of mice fed a high-fat diet compared to non-supplemented controls.
Forty 6-week old male C57BL/6J mice (Jackson Laboratories, Bar Harbor, Me.) were fed a high fat diet (HFD, 60% kilocalories fat, D12492 Research Diets Inc., New Brunswick, N.J.) for eight weeks. Animals were randomly assigned to one of the following four study groups (10 per group) on Day −1 based on body weight: Group 1 (HFD non-supplemented controls), Group 2 (daily oral 5 mg/kg heptadecanoic acid, C17:0), Group 3 (daily oral 35 mg/kg heptadecanoic acid, C17:0), and Group 4 (daily oral 5 mg/kg pentadecanoic acid, C15:0). Group sizes for this pilot study were based on numerous published studies initially evaluating the effects of other natural small molecules on similar metabolic indices in the same model. Animals were provided the vehicle (1×PBS) or test articles daily via gastric gavage for 12 weeks. Animals were fed the HFD throughout the study. The study was conducted by Charles River Laboratories (Shrewsbury, Mass.), where animals were housed singly in solid bottom polycarbonate cages with Beta-chip contact bedding and enviro-dri nesting material, with temperature and humidity ranges of 18° to 26° C. and 30 to 70%, respectively. A 12 hr light cycle was used, and water and food were provided ad libitum. Body weights and body weight changes were recorded weekly throughout the study. Due to low sample sizes and inability to assume normal distributions, Wilcoxon tests were used to compare body weight values between supplemented and non-supplemented controls; a two-sided P value ≤0.05 was defined as significant.

[5] = after 4 months of daily oral 100 mg, 44 responders
[6] = 5 mg/kg daily oral gavage for 12 weeks
[7] = 5 mg/kg daily oral gavage for 12 weeks, *p < 0.05 compared to controls
[8] = 35 mg/kg daily oral gavage for 12 weeks

Compound | CB1 agonist activity [1] [%] | customers reporting healthier body weight [2, 5] [%] | customers reporting healthier eating, including less snacking [2, 5] [%] | customers reporting feeling less hungry between meals, snacking less, and/or eating less during meals ([2]; after 6 weeks of daily oral 100 mg, 114 responders) [%] | satiety reported by patients taking the dietary supplement ([2]; dietary supplement) | CB2 agonist activity [3] [%] | EC50 (PPARγ) [µM] | maximum PPARα agonist activity compared to positive control GW7647 (PPARα) [%] | EC50 (PPARα) [µM] | maximum PPARδ agonist activity compared to positive control L-165,041 (PPARδ) [%] | EC50 (PPARδ) [µM] | Body weight [4, 6] [g] | Body weight change (%) [4, 7] | percent body weight gain / weight-lowering effect compared to non-supplemented controls [4] | Body weight [4, 8] [g] | Body weight change (%) [4, 8] [%]
CCCCCCCCCCCCCCC(=O)O [C15:0, pentadecanoic acid] | 24.5 | 21 | 33 | 46 | increased satiety | 18.2 | ≥ 100 | 65.8 | 11.5 | 52.8 | 2.7 | 41 ± 5 | 120 ± 6* % | weight-lowering effect was observed; also recorded: lower percent body weight gain | – | –
CCCCCCCCCCCCCCCCC(=O)O [C17:0, heptadecanoic acid] | – | – | – | – | – | – | ≥ 100 | – | > 100 | 39.8 | 17.4 | 43 ± 6 | 127 ± 9% | weight-lowering effect was not observed; also recorded: did not significantly decrease percent body weight | 41 ± 7 | 122 ± 12
